PubChem BioAssay (NCI)
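Following 48 hours of exposure in 96-well plates, responses at five concentrations were used to interpolate endpoints linearly. Here, GI50 denotes the concentration required for 50% inhibition of growth. TGI: total growth inhibition.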

What was measured:
Assay in all cases: DTP human tumour cell line panel, 48 h
SF-539 CNS = test system: SF-539 CNS
T-47D breast = test system: T-47D breast
HOP-62 NSCLC = test system: HOP-62 NSCLC
SK-MEL-28 melanoma = test system: SK-MEL-28 melanoma
NCI-H522 lung = test system: NCI-H522 lung
SF-295 CNS = test system: SF-295 CNS
NCI-H226 lung = test system: NCI-H226 lung
KM12 colon = test system: KM12 colon

SMILES | GI50 (SF-539 CNS) [µM] | TGI (SF-539 CNS) [µM] | GI50 (T-47D breast) [µM] | TGI (T-47D breast) [µM] | GI50 (HOP-62 NSCLC) [µM] | TGI (HOP-62 NSCLC) [µM] | GI50 (SK-MEL-28 melanoma) [µM] | TGI (SK-MEL-28 melanoma) [µM] | GI50 (NCI-H522 lung) [µM] | TGI (NCI-H522 lung) [µM] | GI50 (SF-295 CNS) [µM] | TGI (SF-295 CNS) [µM] | GI50 (NCI-H226 lung) [µM] | TGI (NCI-H226 lung) [µM] | GI50 (KM12 colon) [µM] | TGI (KM12 colon) [µM]
Cc1ncc(C(=O)Nc2ccc(CN3CCN(C)CC3)c(C(F)(F)F)c2)cc1C#Cc1cnc2cccnn12 | 0.485 | 1.18 | 1.91 | 12.3 | 0.423 | 4.14 | 0.212 | 1.84 | 0.58 | 2.4 | 1.01 | 4.71 | 0.204 | 1.37 | 0.005 | 2.64
COC(=O)C1C(O)CCC2CN3CCc4c([nH]c5ccccc45)C3CC21 (stereo not drawn) |  | > 100 |  | > 100 | > 100 | > 100 |  | > 100 |  | > 100 |  | > 100 |  | > 100 |  | > 100
Cn1c(C(=O)c2ccncc2)cc2ccccc21 | 87.5 | > 100 | 41.6 | > 100 | > 100 | > 100 | > 100 | > 100 | 78.5 | > 100 | > 100 | > 100 | > 100 | > 100 | 75.5 | > 100
CC(C)CCC[C@@H](C)[C@H]1CC[C@H]2[C@@H]3CC[C@H]4C[C@@H](CCC=C(c5cc(Cl)c(O)c(C(=O)O)c5)c5cc(Cl)c(O)c(C(=O)O)c5)CC[C@]4(C)[C@H]3CC[C@]12C |  | > 100 |  | > 100 |  | > 100 |  | > 100 |  | > 100 |  | > 100 |  | > 100 |  | > 100
OCc1ccc(N2CCc3cccc(F)c3C2)cc1Cl | 27.8 | > 87.7 |  |  | 0.0275 | 27.2 | 25.7 | > 79.7 | 13.4 | 36.3 | 0.246 | 18.1 | 0.0191 | 0.0936 | 15.7 | 48.6
O=C1/C(=C/c2cccc(Br)c2)COc2ccc(O)cc21 | 1.89 | 4.58 | 2.18 | 6.28 | 11.7 | 24.3 | 2.14 | 5.21 | 1.46 | 3.11 | 10.4 | 23.6 | 4.92 | 26 | 1.75 | 3.74
CC(=O)c1ccc2c(c1)C1C=CCC1[C@H](c1cc3c(cc1Br)OCO3)N2 (stereo partly drawn) | 0.893 | 2.37 | 1.74 | > 47.4 | 1.9 | 28.9 | 0.626 | 6.56 | 0.84 | 4.87 | 0.382 | 3.07 | 1.74 | > 32.6 | 0.581 | 11.3
COc1ccc2c(=O)cc(-c3ccccc3)[nH]c2c1 | 0.584 | 3.37 |  |  | 9.74 | > 100 | 7.84 | > 100 | 0.698 | 14.2 | 0.33 | 1.84 | 2.14 | > 100 | 0.405 | > 100
O=C1c2ccccc2-[n+]2ccc3c([nH]c4ccccc43)c21 |  | 1.45 |  | 3.52 |  | 2.56 |  | 1.16 |  | 1.3 |  | 1.04 |  | 3.08 |  | 0.636
O=c1c2cc(F)ccc2sc2c(N3CCNCC3)nc3ccc(F)cc3c12 | 1.72 | 3.15 |  |  | 1.82 | 3.85 | 1.74 | 3.17 | 1.7 | 3.39 | 1.78 | 3.22 | 1.53 | 3.03 | 1.79 | 3.34
COc1cc(F)c(F)c(Nc2ccc(I)cc2F)c1NS(=O)(=O)C1(C[C@H](O)CO)CC1 | > 6.57 | > 10 | > 4.02 | > 9.3 | 0.184 | > 10 | 0.029 | 0.448 | 3.72 | > 10 | > 5.78 | > 10 | > 3.42 | > 10 | 0.371 | > 10
COc1cc2c(c(OC)c1OC)-c1ncc3c(OC)c(OC)c(OC)cc3c1C2 |  |  |  |  | 28.5 | 86 | 34.9 | > 100 | 19.3 | 48.3 | 22 | 47.1 |  |  | 16.1 | 40.4
CC[n+]1oc(C(=O)c2ccc(Cl)cc2)c(-c2ccccc2)c1-c1ccccc1.[Cl][Fe]([Cl])([Cl])[Cl] | > 100 | > 100 | 0.462 | 35.1 | 29.7 | > 100 | 38 | > 100 |  |  | 53.1 | > 100 | 75.2 | > 100 | 89.9 | > 100
Cn1c(-c2c(N)n(Nc3cccc(Cl)c3)c3nc(C#N)c(C#N)nc23)nc2ccccc21 | 1.38 | 10.3 | 13.2 | > 50 | 15.6 | 43.4 | 6.99 | 24.4 | 1.06 | 8.19 | 11 | 27.8 |  |  | 9.57 | 26.1
COc1cc(C2SCCCCCCCCCCSC(c3ccc(O)c(OC)c3)SCCCCCCCCCCS2)ccc1O (stereo not drawn) |  |  |  | > 100 |  | > 100 |  | > 100 |  | > 100 |  | > 100 |  | > 100 |  | > 100
COc1cccc(/C(C#N)=C/c2nc3c(N4CCOCC4)nc(Cl)nc3n2C)c1 | 1.44 | 2.79 |  |  | 1.6 | 3.64 | 1.61 | 3.1 | 0.567 | 2.2 | 2.47 | 7.88 | 1.56 | 3.35 | 1.77 | 3.53
O=C(/C=C/c1ccccc1)C(Br)C(Br)c1ccccc1 (stereo not drawn) | 1.87 | 3.86 |  |  | 4.06 | 14.9 | 2.04 | 4.66 | 1.04 | 2.31 | 2.95 | 10.5 |  |  | 2.07 | 4.38
